Measurements: PMC6207370 (Xenobiotica; the fate of foreign compounds in biological …, 2017)
Read-outs that look alike come from different tables or passages of the source. Marks after values point to notes of the source that are not given here.

What was measured:
Allometric scaling = assay: Allometric scaling; set-up: species or system human; details: for SSS Human Predicted S9 CLint: exponent 0.75
[1] = type: in vitro ADME
[2] = mouse; ref Dalvie D, Zhang C, Chen W, et al. (2010); cited from earlier work
[3] = rat; ref Dalvie D, Zhang C, Chen W, et al. (2010); cited from earlier work
[4] = cynomolgus monkey; ref Dalvie D, Zhang C, Chen W, et al. (2010); cited from earlier work
[5] = Incubations with rat hepatic S9; details: for CLint scaled at 1 μM: male, Sprague-Dawley, Table 1, triplicate, 2–3 experiments; for Fm,AO Method A (fraction metabolized by AO): method A (eq. 4); for Fm,AO Method B (fraction metabolized by AO): method B (eq. 5), values > 1 assumed equal to 1; for CLHEP (hepatic clearance): well-stirred model from S9 CLint (+NADPH), uncorrected for fraction unbound
[6] = Incubations with human hepatic S9; details: for CLint scaled at 1 μM: both; for Fm,AO Method A (fraction metabolized by AO) / Fm,AO Method B (fraction metabolized by AO) / Fm,AO (fraction metabolized by AO): human hepatic S9; for Fm,AO Method A (fraction metabolized by AO): method A (eq. 4); for Fm,AO Method B (fraction metabolized by AO): method B (eq. 5), values > 1 assumed equal to 1; for Fm,AO (fraction metabolized by AO): methods A and B taken together (data from Table 3)
[7] = Incubations with mouse hepatic S9; details: for CLint scaled at 1 μM: male, CD-1, mouse, Table 1, triplicate, 2–3 experiments; for Fm,AO Method A (fraction metabolized by AO): method A (eq. 4); for Fm,AO Method B (fraction metabolized by AO): method B (eq. 5), values > 1 assumed equal to 1
[8] = Incubations with minipig hepatic S9; details: for CLint scaled at 1 μM: male, Gottingen, Table 1, triplicate, 2–3 experiments; for Fm,AO Method A (fraction metabolized by AO): method A (eq. 4); for Fm,AO Method B (fraction metabolized by AO): method B (eq. 5), values > 1 assumed equal to 1
[9] = Incubations with guinea pig hepatic S9; details: for Fm,AO Method A (fraction metabolized by AO) / Fm,AO Method B (fraction metabolized by AO): guinea pig hepatic S9; for Fm,AO Method A (fraction metabolized by AO): method A (eq. 4); for Fm,AO Method B (fraction metabolized by AO): method B (eq. 5), values > 1 assumed equal to 1
[10] = Incubations with rhesus monkey hepatic S9; details: for Fm,AO Method A (fraction metabolized by AO) / Fm,AO Method B (fraction metabolized by AO): rhesus monkey hepatic S9; for Fm,AO Method A (fraction metabolized by AO): method A (eq. 4); for Fm,AO Method B (fraction metabolized by AO): method B (eq. 5), values > 1 assumed equal to 1
[11] = Incubations with cynomolgus monkey hepatic S9; details: for Fm,AO Method A (fraction metabolized by AO): method A (eq. 4); for Fm,AO Method B (fraction metabolized by AO): method B (eq. 5), values > 1 assumed equal to 1
[12] = rat, hepatic S9, pH 7.4, CLint (intrinsic clearance) in hepatic S9, rat hepatic S9, in the presence of NADPH
[13] = human, hepatic S9, pH 7.4, CLint (intrinsic clearance) in hepatic S9, human hepatic S9, in the presence of NADPH, Table 1, triplicate, 2–3 experiments
[14] = human, hepatic S9, pH 7.4, CLint −NADPH, human hepatic S9 without NADPH
[15] = hepatic S9, pH 7.4, CLint (intrinsic clearance) in hepatic S9, mouse hepatic S9, in the presence of NADPH
[16] = minipig, hepatic S9, pH 7.4, CLint (intrinsic clearance) in hepatic S9, minipig hepatic S9, in the presence of NADPH

SMILES	Fm,AO, across species ([1]; all species)	CLint scaled at 1 μM [5, 12] [mL/min/kg]	Fm,AO Method A (fraction metabolized by AO) ([5]; rat hepatic S9)	Fm,AO Method B (fraction metabolized by AO) ([5]; rat hepatic S9)	CLHEP (hepatic clearance) ([5]; rat) [mL/min/kg]	CLint scaled at 1 μM [6, 13] [mL/min/kg]	CLint scaled at 1 μM [6, 14] [mL/min/kg]	Fm,AO Method A (fraction metabolized by AO) [6]	Fm,AO Method B (fraction metabolized by AO) [6]	Fm,AO (fraction metabolized by AO) [6]	Fm,AO Method A (fraction metabolized by AO) ([7]; mouse hepatic S9)	Fm,AO Method B (fraction metabolized by AO) ([7]; mouse hepatic S9)	Fm,AO Method A (fraction metabolized by AO) ([8]; minipig hepatic S9)	Fm,AO Method B (fraction metabolized by AO) ([8]; minipig hepatic S9)	Fm,AO Method A (fraction metabolized by AO) [9]	Fm,AO Method B (fraction metabolized by AO) [9]	Fm,AO Method A (fraction metabolized by AO) [10]	Fm,AO Method B (fraction metabolized by AO) [10]	Fm,AO Method A (fraction metabolized by AO) ([11]; cynomolgus monkey hepatic S9)	Fm,AO Method B (fraction metabolized by AO) ([11]; cynomolgus monkey hepatic S9)	also measured
N=C(N)NC(=O)c1cnn(-c2cccc3ncccc23)c1C1CC1 [Zoniporide]	> 0.70	466 ± 27	0.74	0.72	60.8 ± 0.485	17.9 ± 1.77	17.1 ± 1.53	0.77	0.72	0.72–0.77	0.90	0.90	0.83	0.97	0.84	0.97	0.77	1^#	0.90	1	SSS Human Predicted S9 CLint (Allometric scaling; single-species scaling from cynomolgus monkey S9 CLint): 30.7 mL/min/kg; SSS Human Predicted S9 CLint (Allometric scaling; single-species scaling from mouse S9 CLint): 43.1 mL/min/kg; SSS Human Predicted S9 CLint (Allometric scaling; single-species scaling from rat S9 CLint): 114 mL/min/kg; CLp (plasma clearance) [2]: 298^§ mL/min/kg; CLp (plasma clearance) [3]: 237^§ mL/min/kg; CLp (plasma clearance) [4]: 31^§ mL/min/kg; Fm,AO (fraction metabolized by AO) ([5]; rat hepatic S9, methods A and B taken together (data from Table 3)): 0.72–0.74; CLint scaled at 1 μM [7, 15]: 332 ± 11.3 mL/min/kg; Fm,AO (fraction metabolized by AO) ([7]; mouse hepatic S9, methods A and B taken together (data from Table 3)): 0.90; CLint scaled at 1 μM [8, 16]: 23.4 ± 2.07 mL/min/kg; SSS Human Predicted CLp (Single-species scaling; single-species scaling from literature cynomolgus monkey CLp): 15.2 mL/min/kg; SSS Human Predicted CLp (Single-species scaling; single-species scaling from literature mouse CLp): 39.2 mL/min/kg; SSS Human Predicted CLp (Single-species scaling; single-species scaling from literature rat CLp): 62.7 mL/min/kg; Fm,AO (fraction metabolized by AO) ([11]; cynomolgus monkey hepatic S9, methods A and B taken together (data from Table 3)): ≥ 0.90
Cn1cc(-c2ccc3nnc(Sc4ccc5ncccc5c4)n3n2)cn1 [SGX523]	0.03 – 0.68	35.3 ± 6.39	0.42	0.28	23.3 ± 2.85	7.1 ± 2.28	4.51 ± 0.31	0.36	0.61		0.33	0.22	0.18	0.12	0.23	0.03	0.34	0.14	0.58	0.68	fold-error of human S9 CLint predicted by SSS (Allometric scaling; SSS from cynomolgus monkey): outside of 3-fold-error; fold-error of human S9 CLint predicted by multispecies allometry (MA) (Allometric scaling; minipig/rhesus/guinea pig combination, CLpred/CLobs): 3.0; E (estimated hepatic extraction ratio), across species ([1]; all species (human, mouse, rat, guinea pig, cynomolgus, rhesus, minipig) hepatic S9): 0.25 – 0.50; E (estimated hepatic extraction ratio) ([5]; rat, E = CLHEP/QH from hepatic S9 (+NADPH)): 0.33; E (estimated hepatic extraction ratio) ([6]; human, E = CLHEP/QH from hepatic S9 (+NADPH)): 0.25; CLint scaled at 1 μM [7, 15]: 39.4 ± 7.19 mL/min/kg; E (estimated hepatic extraction ratio) ([7]; mouse, E = CLHEP/QH from hepatic S9 (+NADPH)): 0.30; CLint scaled at 1 μM [8, 16]: 25.4 ± 1.46 mL/min/kg; E (estimated hepatic extraction ratio) ([8]; minipig, E = CLHEP/QH from hepatic S9 (+NADPH)): 0.48; E (estimated hepatic extraction ratio) ([9]; guinea pig, E = CLHEP/QH from hepatic S9 (+NADPH)): 0.41; E (estimated hepatic extraction ratio) ([10]; rhesus monkey, E = CLHEP/QH from hepatic S9 (+NADPH)): 0.40; E (estimated hepatic extraction ratio) ([11]; cynomolgus monkey, E = CLHEP/QH from hepatic S9 (+NADPH)): 0.50
CCN(C(C)=O)c1cccc(-c2ccnc3c(C#N)cnn23)c1 [Zaleplon, zaleplon]					12.7 ± 2.10			1	0.71	≥ 0.71	0.22	0	0.17	0	1	0.50	0.42	0.65	1	0.70	Fm,AO, across species ([1]; cynomolgus monkey, rhesus monkey, and guinea pig S9): 0.42–0.70; Fm,AO, across species ([1]; mouse and minipig S9): ≤ 0.22; CLint scaled at 1 μM ([5]; rat, s9, pH 7.4, CLint (intrinsic clearance) in hepatic S9, rat hepatic S9, in the presence of NADPH): 15.6 ± 3.05 mL/min/kg; CLint scaled at 1 μM ([6]; human, s9, pH 7.4, CLint (intrinsic clearance) in hepatic S9, human hepatic S9, in the presence of NADPH, Table 1, triplicate, 2–3 experiments): 5.8 ± 1.02 mL/min/kg; CLint scaled at 1 μM ([6]; human, s9, pH 7.4, CLint −NADPH, human hepatic S9 without NADPH): 3.96 ± 1.35 mL/min/kg; CLint scaled at 1 μM ([7]; s9, pH 7.4, CLint (intrinsic clearance) in hepatic S9, mouse hepatic S9, in the presence of NADPH): 24.4 ± 5.28 mL/min/kg; CLint scaled at 1 μM ([8]; minipig, s9, pH 7.4, CLint (intrinsic clearance) in hepatic S9, minipig hepatic S9, in the presence of NADPH): 5.55 ± 1.34 mL/min/kg; Fm,AO (fraction metabolized by AO) ([8]; minipig hepatic S9, methods A and B taken together): ≤ 0.17
